Measured values as given in US6730334B2, “Multi-arm block copolymers as drug delivery vehicles” (Nektar Therapeutics AL, Corporation, priority 2001, dated 2004).
Values after ≈ are worked out from the molar mass of the structure shown.

Tests used:
[1] = Solubility of drugs in plain buffer and in PPO-PEG multi-arm block copolymer 10050 formulation; type: physicochemical; conditions: thermodynamic from solid; for solubility: aqueous buffer, phosphate buffer, 0.1 M, pH 7.4, read-out: Solubility of Drug in Plain Buffer; for solubility at 2 h: aqueous with cosolvent or surfactant or cyclodextrin, 50 mg PPO-PEG block copolymer 10050/drug formulation, 10 wt. % drug loading, in 1 ml phosphate buffer 0.1 M pH 7.4, 0.2 μm filtered
Description: After two hours of mixing, the mixture was filtered through 0.2 μm syringe filter. The drug concentration in the filtrate was determined by HPLC or UV using a standard curve.

[2] = Drug concentration by HPLC in drug-loaded 8-arm-PCL-PEG26kDa solution; type: physicochemical; conditions: 6 mg drug + 60 mg 8-arm-PCL-PEG26kDa (1/10) in 1 ml phosphate buffer 0.1 M pH 7.0, 0.2 μm filtered
Description: (§1) The solution was dried under argon. The dried solid was heated at 55° C. for two hours under argon. The melt was then cooled to room temperature, placed under vacuum overnight, and reduced to small particles. To the particles was added 1 ml of phosphate buffer (0.1 M, pH 7.0), and the resulting mixture was filtered through 0.2 μm syringe filter.
as §1, with “temperature and” for “temperature,”, “7.0). The” for “7.0), and the”

[3] = drug-loaded 8-arm-PCL-PEG26kDa, phosphate buffer 0.1 M pH 7.0, 37° C., rp-HPLC
Description: At timed intervals, 10 μl of sample was withdrawn and diluted with phosphate buffer (0.1 M, pH 7.0). The solution was filtered through 0.2 μm syringe filter.
At timed intervals, 10 μl of sample was withdrawn and diluted with phosphate buffer (0.1 M, pH 7.0). The solution was filtered through 0.2 μm syringe filter. The filtrate was analyzed by rp-HPLC for paclitaxel concentration.

solubility [1] [µg/mL]	solubility at 2 h [1] [µg/mL]	Drug concentration by HPLC [2]	SMILES	Soluble drug concentration in solution vs. time (FIGS. 8, 9) [3]
88 (≈ 0.246 mM)	4000 (≈ 11.2 mM)		COc1ccc2c(c1)c(CC(=O)O)c(C)n2C(=O)c1ccc(Cl)cc1 [Indomethacin, indomethacin]	
	12000 (≈ 59.3 mM)		CCCC(=O)OCOC(=O)C(C)(C)C [Pivaloyloxymethyl butyrate, pivaloyloxymethyl butyrate]	
< 1	2000 (≈ 2.34 mM)	above 4.5 mg/ml	CC(=O)O[C@H]1C(=O)[C@@]2(C)[C@H]([C@H](OC(=O)c3ccccc3)[C@]3(O)C[C@H](OC(=O)[C@H](O)[C@@H](NC(=O)c4ccccc4)c4ccccc4)C(C)=C1C3(C)C)[C@]1(OC(C)=O)CO[C@@H]1C[C@@H]2O [Paclitaxel, paclitaxel]	retain the paclitaxel in solution for an extended period of time

SMILES	solubility [1] [µg/mL]	solubility at 2 h [1] [µg/mL]	Drug concentration by HPLC [2]	Soluble drug concentration in solution vs. time (FIGS. 8, 9) [3]
Cn1cc(C2=C(c3cn(C)c4cc([N+](=O)[O-])ccc34)C(=O)NC2=O)c2ccc([N+](=O)[O-])cc21 [MNIPD, 3,4-di-[1-methyl 6-nitro-3-indolyl]-1H-pyrrole-2,5-dione]	< 0.5	2600 (≈ 5.84 mM)		
